In patent US20070004766A1, “Methods for relaxation of smooth muscle contractions using Trospium” (priority 2005, published 2007):

Assays:
[1] = tested on: bladder smooth muscle strips; assay: Antimuscarinic activity on bladder smooth muscle strips (carbachol-induced contractions); format: cell-based, guinea pigs; details: Cavia porcellus, read-out: KB, inhibition of carbachol-induced contractions
[2] = target: T1, human recombinant muscarinic receptor M-3 (Homo sapiens, UniProt P20309); assay: biochemical; format: binding
T1 construct: expressed in transfected cells; host or cells: Sf9 insect cells (membranes)
T1 sequence (P20309 whole entry): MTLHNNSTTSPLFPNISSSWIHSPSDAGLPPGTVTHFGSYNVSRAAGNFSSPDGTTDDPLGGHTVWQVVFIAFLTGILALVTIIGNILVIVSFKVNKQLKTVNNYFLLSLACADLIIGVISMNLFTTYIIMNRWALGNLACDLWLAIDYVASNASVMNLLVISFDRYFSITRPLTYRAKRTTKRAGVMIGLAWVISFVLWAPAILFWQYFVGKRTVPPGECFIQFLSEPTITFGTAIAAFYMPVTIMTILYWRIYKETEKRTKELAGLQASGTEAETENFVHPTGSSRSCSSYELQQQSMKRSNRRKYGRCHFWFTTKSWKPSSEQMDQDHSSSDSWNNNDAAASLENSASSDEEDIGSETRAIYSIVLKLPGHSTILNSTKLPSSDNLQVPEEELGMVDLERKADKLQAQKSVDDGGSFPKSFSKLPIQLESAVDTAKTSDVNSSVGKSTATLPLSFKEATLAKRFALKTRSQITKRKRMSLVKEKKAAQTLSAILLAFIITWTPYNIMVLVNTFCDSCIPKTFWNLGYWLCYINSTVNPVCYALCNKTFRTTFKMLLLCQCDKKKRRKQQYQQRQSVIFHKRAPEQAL

| Structure (SMILES) | Kb [1] [nM] | Ki [2] [nM] |
| --- | --- | --- |
| Cc1ccc(O)c([C@H](CCN(C(C)C)C(C)C)c2ccccc2)c1 [Tolterodine] | 1.5 to 5.5 | – |
| O=C(OC1CC2CCC(C1)[N+]21CCCC1)C(O)(c1ccccc1)c1ccccc1 (stereo not drawn) [Trospium, 3α-hydroxy-spiro[1αH,5αH-nortropane-8,1′-pyrrolidinium]chloride benzilate] | 1.5 to 5.5 | 0.501 |
